According to US20220211821A1, “COMPOSITION FOR PREVENTING OR TREATING OBESITY, COMPRISING PHOSPHOLIPASE A2 AS ACTIVE INGREDIENT” (UNIVERSITY-INOUSTRY COOPERATION GROUP OF KYUNG HEE …, priority 2019, published 2022):

What was measured:
[1] = test system: obesity-induced mice, regulatory T cell depletion; assay: Body weight of obesity-induced mice with regulatory T cell depletion (anti-mouse CD25 PC61) or rat IgG control; format: in vivo
Experimental: Anti-mouse CD25 (clone: PC61) was produced from hybridomas obtained from the American Type Culture Collection (ATCC; Manassas, Va., USA), and the mice were intraperitoneally injected with anti-mouse CD25 or rat IgG (Sigma-Aldrich) every 3 days for 11 weeks.
In order to investigate the correlation between bvPLA2 and regulatory T cells, regulatory T cell depletion was performed by injecting anti-mouse CD25 antibody (clone PC61) into mice every 3 days. Rat IgG was used as a control.

[2] = test system: pro-inflammatory macrophages in WAT; assay: H&E histological examination of macrophage infiltration in WAT; format: in vivo, mice; conditions: bvPLA2-treated HFD+PLA2 group vs HFD group
Experimental: (§1) Liver and kidney tissues were fixed in 4% paraformaldehyde overnight, dehydrated, embedded in paraffin, and sectioned to a thickness of 4 μm. The sections were deparaffinized with xylene and then hydrated again with 100%, 90%, 80%, and 70% ethanol. The hydrated sections were washed with tap water and stained with a hematoxylin solution for 5 minutes. Thereafter, the stained sections were immersed in 1% acid alcohol, and then stained again in an eosin solution for 3 minutes. Thereafter, for mounting, the stained sections were dehydrated with 70%, 80%, 90%, or 100% ethanol […].
Since obesity is characterized by the localization of crown-like structures (CLS), which are formed by pro-inflammatory macrophages surrounding dead adipocytes in AT28, H&E histological examination was performed to investigate whether bvPLA2 inhibited the macrophage infiltration in WAT.

[3] = test system: CD206-deficient (CD206-/-) mice lacking the mannose receptor; assay: Body weight and adipose tissue weight of CD206-deficient mice on HFD; format: in vivo; conditions: HFD+PLA2 vs HFD group
Experimental: (§2) Male C57BL/6 mice (5 weeks old; weight 18-20 g) and CD206−/− mice (B6.129P2-MRC1tm1Mnz/J) were purchased from Jackson Laboratory (Bar Harbor, Me.). After acclimation for one week, the mice were fed a normal diet (ND, 10 kcal %) or a high-fat diet (HFD, 60 kcal %) for 15 weeks. Thereafter, the mice were intraperitoneally injected with PBS or bvPLA2 (0.5 mg/kg) starting on week 5 and continuing for 11 weeks.
In order to investigate the immunoregulatory effect of bvPLA2, CD206-deficient (CD206−/−) mice lacking the mannose receptor were used.
More specifically, the body weight and adipose tissue weight of CD206−/− mice were measured by way of the same method as the above experimental schedule (FIG. 1A).

[4] = test system: white adipose tissue (WAT); assay: Quantitative real-time PCR of M1/M2 markers and adipogenic factors in white adipose tissue; format: in vivo, mice
Experimental: Total RNA was isolated from white adipose tissue (WAT) samples by using an easy-BLUE RNA extraction kit (iNtRON Biotechnology, Korea), and cDNA was synthesized using Cyclescript reverse transcriptase (Bioneer, Korea). The synthesized cDNA was subjected to quantitative real-time PCR (95° C. for 15 sec, 55° C. for 10 sec, and 72° C. for 10 sec) with SensiFAST SYBR no-Rox kit (Bioline, Korea), and each reaction was performed in triplicate. The primer sequences for the experiment were as follows:
The changes in macrophage phenotypes were analyzed by quantitative real-time PCR analysis.
More specifically, the expressions of TNF-α, IL-1β, and IL-12a were measured to investigate the effect of bvPLA2 on M1-related markers.
In addition, the expressions of the M2-related markers IL-4, CD206, and Ym1 were measured.
In addition, the expressions of PPARγ, C/EBPα, and UCP-1, which are markers related with lipid accumulation and adipogenesis, were measured.

[5] = test system: mice with HFD-induced obesity; assay: Adipose tissue weight and body weight of mice with HFD-induced obesity; format: in vivo, C57BL/6 mice
Experimental: as §2
The obesity amelioration effect of bvPLA2 was evaluated through changes in adipose tissue weight and body weight of mice with HFD-induced obesity.
More specifically, the […] mice were fed ND or HFD for 15 weeks. After 4 weeks of ND or HFD feeding, the mice were injected with PLA2 or PBS, starting on week 5 (FIG. 1A). Thereafter, the adipose tissue and body weight were measured according to the injection or non-injection of bvPLA2.

[6] = test system: liver and kidney tissues from the mice; assay: H&E staining of liver and kidney: HFD-induced hepatic steatosis and kidney damage; format: in vivo
Experimental: as §1
In order to investigate whether PLA2 alleviated HFD-induced hepatic steatosis and kidney inflammation, liver and kidney tissues from the mice were H&E stained.
Next, the glomerular diameter indicating an early indicator of diabetic nephropathy caused by kidney damage was investigated.

[7] = test system: HFD-induced metabolic dysfunction; assay: Serum/plasma levels of liver, kidney and metabolic markers by group; format: in vivo, mice
Experimental: The effects of bvPLA2 on liver and kidney functions were investigated.
More specifically, serum levels of alanine aminotransferase (ALT), aminotransferase (AST), blood urea nitrogen (BUN), and […] (Crea) were measured for each group.
In order to investigate the effect of bvPLA2 on metabolic syndrome, the triglyceride (TG), glucose (GLU), high-density lipoprotein cholesterol (HDL-C), and low-density lipoprotein cholesterol (LDL-C) levels were analyzed for each group.
In addition, plasma insulin and leptin levels were analyzed for each group.

[8] = test system: mice of the HFD group; assay: Comparison with mellitin: body weight changes in HFD mice; format: in vivo; conditions: 0.5 mg/kg intraperitoneally for 16 weeks, vs control group (PBS)
Experimental: In order to investigate a component having an excellent obesity inhibitory effect among the components of bee venom, mellitin, which is the most abundant in bee venom, was compared with bvPLA2, which is PLA2 derived from bee venom.
More specifically, the mice of the ND and HFD groups were intraperitoneally administered with PBS, mellitin, and bvPLA2 at 0.5 mg/kg each for 16 weeks, and then the body weight changes were compared every day.

[9] = M1-related marker, HFD+PLA2 group vs HFD group
[10] = M2-related marker, HFD-PLA2 group vs HFD group
[11] = lipid accumulation/adipogenesis marker, HFD+PLA2 group vs HFD group
[12] = bvPLA2-treated HFD group vs HFD group
[13] = serum, HFD+PLA2 group vs HFD group

phospholipase A2 [bvPLA2]
body weight ([1]; IgG+PLA2 obesity-induced group vs IgG-only obesity-induced group): significantly reduced | body weight ([1]; PC61+PLA2 group vs PC61-treated group): markedly reduced | CLS formation in AT [2]: reduced | macrophage infiltration in AT [2]: reduced | adipose tissue weight [3]: no significant changes | body weight [3]: no significant changes | UCP-1 expression ([4]; HFD+PLA2 group vs HFD group): significantly increased | IL-1β expression [4, 9]: inhibited to levels similar to those in ND | IL-12a expression [4, 9]: inhibited to levels similar to those in ND | TNF-α expression [4, 9]: inhibited to levels similar to those in ND | CD206 expression [4, 10]: significantly increased | IL-4 expression [4, 10]: significantly increased | C/EBPα expression [4, 11]: inhibited | PPARγ expression [4, 11]: inhibited | epididymal WAT weight ([5]; HFD+PLA2 group vs HFD group): greatly reduced | inguinal WAT weight ([5]; HFD+PLA2 group vs HFD group): greatly reduced | body weight ([5]; HFD+PLA2 group vs HFD group without PLA2, 0.5 mg/kg intraperitoneally from week 5): significant reduction in body weight | food uptake ([5]; all groups (ND, HFD, with or without PLA2)): no food uptake change was observed | kidney hypertrophy (increased glomerular diameter) ([6]; HFD+PLA2 group): no kidney hypertrophy | kidney hypertrophy (increased glomerular diameter) ([6]; ND+PLA2 group): no kidney hypertrophy | size and weight of the liver (lipid droplet accumulation and hepatomegaly) ([6]; ND+PLA2 group): no influence was observed | size and weight of the liver (lipid droplet accumulation and hepatomegaly) [6, 12]: attenuated | plasma insulin level ([7]; HFD+PLA2 group vs HFD group): significantly reduced | plasma leptin level ([7]; HFD+PLA2 group vs HFD group): significantly reduced | serum ALT level [7, 12]: reduced | serum AST level [7, 12]: reduced | serum Crea level [7, 12]: reduced | GLU level [7, 13]: significantly reduced | HDL-C level [7, 13]: significantly reduced | LDL-C level [7, 13]: significantly reduced | TG level [7, 13]: significantly reduced | body weight change [8]: decrease in body weight

mellitin [reference compound]
body weight change [8]: increase in body weight
